Measured values published in PMC6646883 (Biomacromolecules, 2019).
Where no end group is shown, it is not given here.

Assay type: physicochemical
Details: methylene blue assay, dilute solution 0.1 mg/mL in 1x PBS pH 7.4 with Zn(OAc)2, Cys trigger, rt, absorbance at 750 nm, quadruplicate, t1/2=ln(2)/slope

Going from IAVEEEE [APA 3] to IAVEEEE [APA 1], the “H2S release half-life (pseudo-first-order)” value rises from 19 min to 31 min (1.6-fold).

With IAVEEEE [APA 5] the “H2S release half-life (pseudo-first-order)” value was 13 min.
